{"source": "paper PMC11876671", "about": "“Investigating blood–brain barrier penetration and neurotoxicity of natural products for central nervous system drug development” (Scientific Reports, 2025)", "note": "Where a name gives a salt, the structure may show the parent alone."}
{"assay": "in vitro", "conditions": "PAMPA, PAMPA-BBB Pe(10^-6 cm/sec)", "units": {"Papp": "×10⁻⁶ cm/s"}}
{"smiles": "C[C@]12C=CC(=O)C=C1[C@@H](F)C[C@@H]1[C@@H]2[C@@H](O)C[C@@]2(C)[C@H]1CC[C@]2(O)C(=O)CO", "note": "[FLUPREDNISOLONE]", "Papp": 1.9}
{"assay": "in vitro", "conditions": "PAMPA, PAMPA-BBB Pe(10^-6 cm/sec), Table S3: compounds exhibiting low PAMPA-BBB permeability", "units": {"Papp": "×10⁻⁶ cm/s"}}
{"smiles": "C[C@H]([C@H](O)CCC(C)(C)O)[C@H]1CC[C@@]2(O)C3=CC(=O)[C@@H]4C[C@@H](O)[C@@H](O)C[C@]4(C)[C@H]3CC[C@]12C", "note": "[ECDYSONE]", "Papp": "< 1"}
{"smiles": "O=C(O[C@@H]1Cc2c(O)cc(O)cc2O[C@@H]1c1ccc(O)c(O)c1)c1cc(O)c(O)c(O)c1", "note": "[EPICATECHIN GALLATE]", "Papp": "< 1"}
{"smiles": "C=C1CC[C@H](O)C/C1=C/C=C1\\CCC[C@]2(C)[C@@H]([C@H](C)/C=C/[C@H](C)C(C)C)CC[C@@H]12", "note": "[ERGOCALCIFEROL]", "Papp": "< 1"}
{"smiles": "C[C@]12CC[C@@H]3c4ccc(O)cc4CC[C@H]3[C@@H]1C[C@@H](O)[C@@H]2O", "note": "[ESTRIOL]", "Papp": "< 1"}
{"smiles": "CCCCC/C=C\\C=C\\C(=O)OCC", "note": "[ETHYL TRANS-2,CIS-4-DECADIENOATE]", "Papp": "< 1"}
{"smiles": "Clc1ccc([C@@H]2C[C@H]3CC[C@@H]2N3)cn1", "note": "[Epibatidine dihydrochloride]", "Papp": 5.9}
{"smiles": "CC(C)=CCC/C(C)=C/CC/C(C)=C/CO", "note": "[FARNESOL TRANS,TRANS-FARNESOL]", "Papp": "< 1"}
{"smiles": "O=C(C[C@H]1NCCC[C@@H]1O)Cn1cnc2ccccc2c1=O", "note": "[FEBRIFUGINE]", "Papp": "< 1"}
{"smiles": "COc1cc(/C=C/C(=O)O)ccc1O", "note": "[FERULIC ACID]", "Papp": 1.2}
{"smiles": "CCC(=O)c1c(O)cc(O)cc1O", "note": "[FLOPROPIONE]", "Papp": 2.8}
{"smiles": "Cc1cc(O)c(C=O)c2c1C(=O)Oc1c(COC(=O)/C=C/C(=O)O)c(O)c(C(=O)O)c(C)c1O2", "note": "[FUMARPRO[…]]", "Papp": "< 1"}
{"smiles": "CCCCc1ccc(C(=O)O)nc1", "note": "[FUSARIC ACID]", "Papp": "< 1"}
{"smiles": "O=C(O)c1cc(O)c(O)c(O)c1", "note": "[GALLIC ACID]", "Papp": "< 1"}
{"smiles": "O=C(O[C@@H]1Cc2c(O)cc(O)cc2O[C@H]1c1cc(O)c(O)c(O)c1)c1cc(O)c(O)c(O)c1", "note": "[GALLOCATECHIN GALLATE, (-)-]", "Papp": "< 1"}
{"smiles": "Oc1cc(O)c2c(c1)O[C@H](c1cc(O)c(O)c(O)c1)[C@@H](O)C2", "note": "[GALLOCATECHIN]", "Papp": "< 1"}
{"smiles": "CC(=O)O[C@@H]1C[C@H]2C(C)(C)C(=O)C=C[C@]2(C)[C@H]2CC[C@@]3(C)[C@H](c4ccoc4)OC(=O)[C@H]4O[C@]43[C@@]21C", "note": "[GEDUNIN]", "Papp": "< 1"}
{"smiles": "COC1=C2C[C@@H](C)C[C@H](OC)[C@H](O)[C@@H](C)/C=C(\\C)[C@H](OC(N)=O)[C@@H](OC)/C=C\\C=C(/C)C(=O)NC(=CC1=O)C2=O", "note": "[GELDANAMYCIN]", "Papp": "< 1"}
{"smiles": "COC(=O)C1=CO[C@@H](O)[C@@H]2C(CO)=CC[C@H]12", "note": "[GENIPIN]", "Papp": "< 1"}
{"assay": "in vitro", "conditions": "PAMPA, PAMPA-BBB Pe, Table S2: compounds exhibiting moderate to high PAMPA-BBB permeability", "units": {"Papp": "×10⁻⁶ cm/s"}}
{"smiles": "CN1CC(CO)=C[C@H]2c3cccc4[nH]cc(c34)C[C@H]21", "note": "[ELYMOCLAVINE]", "Papp": 17}
{"smiles": "CCOC(=O)/C=C/c1ccccc1", "note": "[ETHYL CINNAMATE]", "Papp": 110}
{"smiles": "CCOC(=O)c1ccc(O)cc1", "note": "[ETHYL HYDROXYBENZOATE]", "Papp": 43}
{"smiles": "CCOC(=O)c1c(C)cc(O)cc1O", "note": "[ETHYL ORSELLINATE]", "Papp": 137}
{"smiles": "C=CCc1ccc(O)c(OC)c1", "note": "[EUGENOL]", "Papp": 116}
{"smiles": "C=C(C)c1cc2cc(C(C)=O)c(O)cc2o1", "note": "[EUPARIN]", "Papp": 125}
{"smiles": "COc1ccc(-c2cc(=O)c3c(O)c(OC)c(OC)cc3o2)cc1O", "note": "[EUPATORIN]", "Papp": 281}
{"smiles": "O=c1c(O)c(-c2ccccc2)oc2ccccc12", "note": "[FLAVONOL]", "Papp": 181}
{"smiles": "COc1ccc(-c2coc3cc(O)ccc3c2=O)cc1", "note": "[FORMONONETIN]", "Papp": 97}
{"smiles": "O=Cc1ccco1", "note": "[FURFURAL]", "Papp": 46}
{"smiles": "COc1cc(OC)c(OC)cc1C=O", "note": "[GAZARIN]", "Papp": 64}
{"smiles": "C=C[C@]12CN(C)[C@@H]3[C@H]4CO[C@H](C[C@H]41)[C@]1(C(=O)Nc4ccccc41)[C@@H]32", "note": "[GELSEMINE]", "Papp": 13}
{"smiles": "O=c1c(-c2ccc(O)cc2)coc2cc(O[C@@H]3O[C@H](CO)[C@@H](O)[C@H](O)[C@H]3O)cc(O)c12", "note": "[GENISTIN]", "Papp": 29}
{"smiles": "COc1cc(-c2oc3cc(O)ccc3c(=O)c2O)ccc1O", "note": "[GERALDOL]", "Papp": 124}
{"smiles": "CCCCC[C@H](O)CC(=O)CCc1ccc(O)c(OC)c1", "note": "[GINGEROL]", "Papp": 69}
